In US10870647B2, “Imidazopyridine derivative, method for preparing same, and pharmaceutical composition containing same as active ingredient for preventing or treating cancer” (DAEGU-GYEONGBUK MEDICAL INNOVATION FOUNDATION, priority 2016, dated 2020) one finds remaining binding data, which are given here for 3 compounds.

Structures are written as SMILES. Read-outs that look alike come from different tables or passages of the source.

What all share (assay): Kinase selectivity, scanMAX Kinase assay panel (DiscoverX), % control at 1 uM
Holding throughout (format): binding

For assay [1], the target named is T1, scanMAX Kinase assay panel (Homo sapiens, UniProt P00519, F317I).
T1 construct: purchased DiscoverX
The conditions noted are these: 1 uM, read-out: Percent Control (%). In a few lines: (§1)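 Read-out is percent of control, derived from the signal with compound relative to positive and negative controls: (compound − positive)/(negative − positive) × 100. Each enzyme received test drug at 1 uM in DMSO, and values under 35% count as active.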

The target in assay [2] is T2, scanMAX Kinase assay panel (Homo sapiens, UniProt O00141).
T2 construct: purchased DiscoverX
T2 sequence (O00141 1-431): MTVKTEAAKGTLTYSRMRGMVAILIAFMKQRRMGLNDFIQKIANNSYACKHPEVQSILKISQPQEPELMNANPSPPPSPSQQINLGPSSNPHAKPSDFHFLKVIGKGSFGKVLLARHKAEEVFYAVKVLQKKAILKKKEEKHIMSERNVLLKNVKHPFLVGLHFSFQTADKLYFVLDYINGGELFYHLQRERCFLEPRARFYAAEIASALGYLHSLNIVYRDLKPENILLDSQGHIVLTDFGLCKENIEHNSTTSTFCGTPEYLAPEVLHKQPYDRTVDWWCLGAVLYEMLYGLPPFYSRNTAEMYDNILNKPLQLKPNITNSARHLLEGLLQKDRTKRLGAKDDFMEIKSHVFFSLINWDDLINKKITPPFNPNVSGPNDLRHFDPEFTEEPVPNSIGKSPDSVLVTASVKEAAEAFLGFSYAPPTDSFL
The following applies: SGK; 1 uM; read-out: Percent Control (%). In a few lines: as §1

Assay [3] concerns the target T3, scanMAX Kinase assay panel (Homo sapiens, UniProt Q02156).
T3 construct: purchased DiscoverX
T3 sequence (Q02156 1-737): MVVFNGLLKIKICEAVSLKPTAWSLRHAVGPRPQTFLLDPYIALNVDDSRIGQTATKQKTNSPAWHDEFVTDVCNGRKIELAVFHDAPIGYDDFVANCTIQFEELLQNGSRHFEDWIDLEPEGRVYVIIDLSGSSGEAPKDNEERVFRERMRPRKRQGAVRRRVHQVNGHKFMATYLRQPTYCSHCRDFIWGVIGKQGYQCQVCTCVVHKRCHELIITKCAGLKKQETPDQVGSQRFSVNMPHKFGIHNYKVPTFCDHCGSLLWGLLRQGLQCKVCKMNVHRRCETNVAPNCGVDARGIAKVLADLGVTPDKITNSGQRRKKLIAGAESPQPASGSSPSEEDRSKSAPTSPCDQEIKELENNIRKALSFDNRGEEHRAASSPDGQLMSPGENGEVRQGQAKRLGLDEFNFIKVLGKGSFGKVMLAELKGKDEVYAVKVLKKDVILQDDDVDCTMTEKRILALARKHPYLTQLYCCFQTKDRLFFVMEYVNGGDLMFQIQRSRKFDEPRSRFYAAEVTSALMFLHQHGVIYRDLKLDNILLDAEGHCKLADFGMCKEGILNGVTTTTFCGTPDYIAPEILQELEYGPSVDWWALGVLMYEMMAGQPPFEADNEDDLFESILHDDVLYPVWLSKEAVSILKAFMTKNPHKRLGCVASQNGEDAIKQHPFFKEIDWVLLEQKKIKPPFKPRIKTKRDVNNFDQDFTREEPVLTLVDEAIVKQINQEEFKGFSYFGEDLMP
The conditions noted are these: PRKCE; 1 uM; read-out: Percent Control (%). The gist of the method:
as §1

For assay [4], the target named is T4, scanMAX Kinase assay panel (Homo sapiens, UniProt P29322).
T4 construct: purchased DiscoverX
T4 sequence (P29322 28-1005): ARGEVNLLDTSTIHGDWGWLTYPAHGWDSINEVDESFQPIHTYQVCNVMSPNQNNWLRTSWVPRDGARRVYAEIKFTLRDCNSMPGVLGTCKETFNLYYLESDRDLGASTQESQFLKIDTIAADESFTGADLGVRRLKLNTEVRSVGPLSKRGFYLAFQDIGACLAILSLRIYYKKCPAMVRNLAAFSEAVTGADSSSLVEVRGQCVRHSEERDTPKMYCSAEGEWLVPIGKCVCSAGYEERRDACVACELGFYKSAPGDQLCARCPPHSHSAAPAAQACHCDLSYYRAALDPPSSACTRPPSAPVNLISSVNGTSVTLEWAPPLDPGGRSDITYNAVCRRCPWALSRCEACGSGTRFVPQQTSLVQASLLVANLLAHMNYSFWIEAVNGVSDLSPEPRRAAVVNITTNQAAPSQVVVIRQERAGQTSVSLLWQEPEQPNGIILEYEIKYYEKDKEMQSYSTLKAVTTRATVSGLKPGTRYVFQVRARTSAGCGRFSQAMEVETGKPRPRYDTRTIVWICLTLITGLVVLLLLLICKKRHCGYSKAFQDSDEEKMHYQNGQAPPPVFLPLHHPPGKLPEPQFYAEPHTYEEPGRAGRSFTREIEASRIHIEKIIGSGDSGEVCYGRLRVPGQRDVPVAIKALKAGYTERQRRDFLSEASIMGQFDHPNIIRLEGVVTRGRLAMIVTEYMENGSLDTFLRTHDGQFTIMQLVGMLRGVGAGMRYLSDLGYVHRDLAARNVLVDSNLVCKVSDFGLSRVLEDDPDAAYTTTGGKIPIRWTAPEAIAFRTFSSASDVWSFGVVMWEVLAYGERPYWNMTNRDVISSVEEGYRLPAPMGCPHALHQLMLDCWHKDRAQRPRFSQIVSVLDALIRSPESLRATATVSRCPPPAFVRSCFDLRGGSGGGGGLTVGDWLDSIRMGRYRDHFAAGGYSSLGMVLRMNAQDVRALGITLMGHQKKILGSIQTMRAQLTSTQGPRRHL
The conditions noted are these: EPHA8; 1 uM; read-out: Percent Control (%). The gist of the method: as §1

The target of assay [5] is T5, scanMAX Kinase assay panel (Homo sapiens, UniProt Q9BX84).
T5 construct: purchased DiscoverX
The following applies: TRPM6; 1 uM; read-out: Percent Control (%). The gist of the method:
as §1

The target in assay [6] is T6, scanMAX Kinase assay panel (Homo sapiens, UniProt P51451).
T6 construct: purchased DiscoverX
The following applies: BLK; 1 uM; read-out: Percent Control (%). The gist of the method:
as §1

Assay [7] deals with T7, scanMAX Kinase assay panel (Homo sapiens, UniProt P23443).
T7 construct: purchased DiscoverX
The conditions noted are these: S6K1; 1 uM; read-out: Percent Control (%). The gist of the method: as §1

Assay [8] concerns the target T8, scanMAX Kinase assay panel (Homo sapiens, UniProt O43353).
T8 construct: purchased DiscoverX
The following applies: RIPK2; 1 uM; read-out: Percent Control (%). In a few lines: as §1

T7 sequence (P23443 whole entry): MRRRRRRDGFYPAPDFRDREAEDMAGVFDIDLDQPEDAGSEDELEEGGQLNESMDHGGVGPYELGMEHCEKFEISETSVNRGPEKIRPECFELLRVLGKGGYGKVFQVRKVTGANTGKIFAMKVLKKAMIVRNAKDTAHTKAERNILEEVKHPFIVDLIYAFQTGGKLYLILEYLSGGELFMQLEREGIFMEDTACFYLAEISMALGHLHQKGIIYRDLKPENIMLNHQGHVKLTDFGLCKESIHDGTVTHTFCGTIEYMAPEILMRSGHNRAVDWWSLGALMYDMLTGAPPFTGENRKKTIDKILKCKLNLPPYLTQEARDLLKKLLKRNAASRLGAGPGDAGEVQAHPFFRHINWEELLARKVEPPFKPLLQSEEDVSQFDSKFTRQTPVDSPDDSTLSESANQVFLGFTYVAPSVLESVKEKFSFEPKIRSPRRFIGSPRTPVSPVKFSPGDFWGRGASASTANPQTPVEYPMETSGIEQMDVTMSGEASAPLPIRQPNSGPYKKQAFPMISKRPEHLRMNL
T5 sequence (Q9BX84 whole entry): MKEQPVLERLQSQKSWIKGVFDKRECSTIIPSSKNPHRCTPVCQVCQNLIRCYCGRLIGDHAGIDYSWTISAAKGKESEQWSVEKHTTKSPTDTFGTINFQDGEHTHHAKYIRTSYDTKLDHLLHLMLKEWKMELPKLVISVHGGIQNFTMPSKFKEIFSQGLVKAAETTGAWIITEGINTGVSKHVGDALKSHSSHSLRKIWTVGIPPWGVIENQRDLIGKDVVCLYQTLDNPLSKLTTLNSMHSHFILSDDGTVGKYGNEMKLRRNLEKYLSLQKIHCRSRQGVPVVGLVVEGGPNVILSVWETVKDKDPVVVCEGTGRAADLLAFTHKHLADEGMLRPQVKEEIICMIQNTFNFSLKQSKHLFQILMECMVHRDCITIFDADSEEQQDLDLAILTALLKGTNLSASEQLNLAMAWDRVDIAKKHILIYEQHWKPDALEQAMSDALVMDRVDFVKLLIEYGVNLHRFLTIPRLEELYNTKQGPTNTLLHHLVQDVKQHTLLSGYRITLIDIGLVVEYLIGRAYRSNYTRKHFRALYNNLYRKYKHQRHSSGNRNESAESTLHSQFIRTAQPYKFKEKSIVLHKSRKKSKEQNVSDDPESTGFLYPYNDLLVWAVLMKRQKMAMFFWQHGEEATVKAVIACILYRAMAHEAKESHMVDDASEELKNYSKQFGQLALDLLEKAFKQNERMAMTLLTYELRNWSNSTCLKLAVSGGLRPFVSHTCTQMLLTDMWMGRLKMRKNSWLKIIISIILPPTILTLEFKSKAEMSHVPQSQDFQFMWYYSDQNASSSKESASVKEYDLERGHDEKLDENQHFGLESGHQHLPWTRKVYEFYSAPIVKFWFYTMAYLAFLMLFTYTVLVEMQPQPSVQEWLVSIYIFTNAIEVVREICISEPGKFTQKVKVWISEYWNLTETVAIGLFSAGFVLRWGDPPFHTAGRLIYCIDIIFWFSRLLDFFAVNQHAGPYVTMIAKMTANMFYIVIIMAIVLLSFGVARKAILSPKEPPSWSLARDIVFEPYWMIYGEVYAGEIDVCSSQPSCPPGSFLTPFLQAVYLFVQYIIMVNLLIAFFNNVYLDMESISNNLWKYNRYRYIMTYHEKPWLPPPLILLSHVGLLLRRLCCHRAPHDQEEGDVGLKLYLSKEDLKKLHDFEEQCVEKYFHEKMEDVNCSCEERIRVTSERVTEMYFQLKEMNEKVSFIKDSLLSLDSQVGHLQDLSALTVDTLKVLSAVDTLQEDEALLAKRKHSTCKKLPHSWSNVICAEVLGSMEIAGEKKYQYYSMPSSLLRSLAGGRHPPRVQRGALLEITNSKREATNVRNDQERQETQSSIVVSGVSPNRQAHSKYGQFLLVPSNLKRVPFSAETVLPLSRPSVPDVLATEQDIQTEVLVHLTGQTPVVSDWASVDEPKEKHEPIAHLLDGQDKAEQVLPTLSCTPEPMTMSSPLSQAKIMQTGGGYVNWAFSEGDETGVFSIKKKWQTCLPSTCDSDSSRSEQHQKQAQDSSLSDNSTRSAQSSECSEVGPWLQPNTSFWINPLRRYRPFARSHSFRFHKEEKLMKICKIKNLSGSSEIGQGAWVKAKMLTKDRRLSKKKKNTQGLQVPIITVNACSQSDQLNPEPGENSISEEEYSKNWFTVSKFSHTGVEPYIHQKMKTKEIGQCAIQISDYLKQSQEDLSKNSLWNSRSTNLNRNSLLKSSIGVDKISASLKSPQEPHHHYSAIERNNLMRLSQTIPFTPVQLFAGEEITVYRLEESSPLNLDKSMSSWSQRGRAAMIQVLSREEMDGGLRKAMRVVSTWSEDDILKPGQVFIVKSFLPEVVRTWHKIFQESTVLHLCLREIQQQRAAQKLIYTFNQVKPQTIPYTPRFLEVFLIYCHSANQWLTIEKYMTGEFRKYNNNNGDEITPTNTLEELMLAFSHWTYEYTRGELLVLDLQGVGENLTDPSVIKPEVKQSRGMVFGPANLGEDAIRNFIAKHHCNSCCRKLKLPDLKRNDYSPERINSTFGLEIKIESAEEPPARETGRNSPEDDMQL
T8 sequence (O43353 whole entry): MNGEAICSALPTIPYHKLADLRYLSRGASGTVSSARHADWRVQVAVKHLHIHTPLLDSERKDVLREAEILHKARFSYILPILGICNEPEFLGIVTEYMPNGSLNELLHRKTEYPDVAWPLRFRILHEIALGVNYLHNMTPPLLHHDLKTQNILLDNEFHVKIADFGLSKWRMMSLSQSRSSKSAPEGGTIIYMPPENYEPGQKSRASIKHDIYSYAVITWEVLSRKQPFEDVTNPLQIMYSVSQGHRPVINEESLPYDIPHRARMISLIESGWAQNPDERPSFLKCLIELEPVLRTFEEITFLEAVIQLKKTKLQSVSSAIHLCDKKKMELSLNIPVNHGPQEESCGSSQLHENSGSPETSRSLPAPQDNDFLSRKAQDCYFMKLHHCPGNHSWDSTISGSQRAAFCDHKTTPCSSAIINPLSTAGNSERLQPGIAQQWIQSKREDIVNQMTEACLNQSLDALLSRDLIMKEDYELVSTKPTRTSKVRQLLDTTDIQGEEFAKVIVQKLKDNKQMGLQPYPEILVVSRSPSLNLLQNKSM
T6 sequence (P51451 whole entry): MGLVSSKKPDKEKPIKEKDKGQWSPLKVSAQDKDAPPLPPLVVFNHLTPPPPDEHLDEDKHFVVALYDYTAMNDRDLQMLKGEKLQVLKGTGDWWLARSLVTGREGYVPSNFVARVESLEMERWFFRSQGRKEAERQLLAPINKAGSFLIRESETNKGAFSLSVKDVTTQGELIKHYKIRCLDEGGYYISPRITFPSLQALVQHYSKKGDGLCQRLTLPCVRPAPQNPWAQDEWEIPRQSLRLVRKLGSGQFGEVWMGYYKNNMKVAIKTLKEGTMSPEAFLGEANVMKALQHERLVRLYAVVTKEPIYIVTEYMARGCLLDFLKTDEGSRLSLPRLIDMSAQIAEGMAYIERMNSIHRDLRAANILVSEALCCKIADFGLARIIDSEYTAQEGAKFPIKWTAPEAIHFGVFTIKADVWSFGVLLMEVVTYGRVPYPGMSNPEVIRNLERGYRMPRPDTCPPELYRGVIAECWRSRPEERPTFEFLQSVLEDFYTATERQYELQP
T1 sequence (P00519 whole entry F317I): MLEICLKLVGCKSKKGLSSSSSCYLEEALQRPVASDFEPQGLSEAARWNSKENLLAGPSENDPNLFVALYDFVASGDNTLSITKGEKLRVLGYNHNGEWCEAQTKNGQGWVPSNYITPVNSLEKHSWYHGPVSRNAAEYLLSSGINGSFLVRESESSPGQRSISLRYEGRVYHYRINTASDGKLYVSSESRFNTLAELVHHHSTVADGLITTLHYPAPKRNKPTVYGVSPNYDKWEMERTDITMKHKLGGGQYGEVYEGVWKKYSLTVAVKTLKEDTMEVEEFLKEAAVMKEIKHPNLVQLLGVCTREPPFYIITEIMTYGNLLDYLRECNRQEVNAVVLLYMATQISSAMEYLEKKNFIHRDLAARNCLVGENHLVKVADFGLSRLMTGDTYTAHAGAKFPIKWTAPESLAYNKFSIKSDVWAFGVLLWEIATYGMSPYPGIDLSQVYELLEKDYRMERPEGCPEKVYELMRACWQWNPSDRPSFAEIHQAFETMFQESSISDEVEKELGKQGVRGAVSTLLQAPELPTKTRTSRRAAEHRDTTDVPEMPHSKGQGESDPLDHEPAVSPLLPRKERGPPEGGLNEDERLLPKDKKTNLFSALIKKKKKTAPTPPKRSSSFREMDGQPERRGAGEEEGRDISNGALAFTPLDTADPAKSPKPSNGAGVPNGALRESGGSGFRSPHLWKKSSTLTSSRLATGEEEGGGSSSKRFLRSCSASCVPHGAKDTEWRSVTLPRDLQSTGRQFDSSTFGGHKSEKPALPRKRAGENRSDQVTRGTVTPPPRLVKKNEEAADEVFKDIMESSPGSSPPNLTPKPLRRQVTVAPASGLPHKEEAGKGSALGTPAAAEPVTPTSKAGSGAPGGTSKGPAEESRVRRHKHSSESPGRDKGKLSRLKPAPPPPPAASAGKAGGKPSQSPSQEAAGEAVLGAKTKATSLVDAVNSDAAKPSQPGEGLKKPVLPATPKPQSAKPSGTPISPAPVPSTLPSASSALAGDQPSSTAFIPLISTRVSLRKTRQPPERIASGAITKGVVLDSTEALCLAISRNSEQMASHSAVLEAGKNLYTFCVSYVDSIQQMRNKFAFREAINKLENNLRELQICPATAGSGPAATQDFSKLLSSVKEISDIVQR

In the case of `Cc1ccc(C(=O)Nc2ccc(CN3CCN(C)CC3)c(C(F)(F)F)c2)cc1C#Cc1cnc2c(Nc3cnn(C)c3)cccn12` [Example 1, 4-methyl-3-((8-((1-methyl-1H-pyrazol-4-yl)amino)imidazo[1,2-a]pyridin-3-yl)ethynyl)-N-(4-((4-methylpiperazin-1-yl)methyl)-3-(trifluoromethyl)phenyl)benzamide], the remaining binding at 1 µM in assay [1] (ABL1 (F317I)-nonphosphorylated) amounted to 1%; in assay [1] (ABL1 (F317I)-phosphorylated) it was 3%; in assay [2], 93%; in assay [3], 67%; in assay [4], 0%; in assay [5], 100%. In addition, the remaining binding at 1 µM was 0% in assay [6], 14% in assay [7] and 7% in assay [8].

Take `Cc1cn(-c2cc(NC(=O)c3ccc(C)c(C#Cc4cnc5c(Nc6cnn(C)c6)cccn45)c3)cc(C(F)(F)F)c2)cn1` [Example 12, 4-methyl-N-(3-(4-methyl-1H-imidazol-1-yl)-5-(trifluoromethyl)phenyl)-3-((8-((1-methyl-1H-pyrazol-4-yl)amino)imidazo[1,2-a]pyridin-3-yl)ethynyl)benzamide]: the remaining binding at 1 µM worked out at 10% in assay [1] (ABL1 (F317I)-nonphosphorylated); 28% in assay [1] (ABL1 (F317I)-phosphorylated); 100% in assay [2]; 71% in assay [3]; 1% in assay [4]; 87% in assay [5]. Further, the remaining binding at 1 µM worked out at 1% in assay [6], 100% in assay [7] and 22% in assay [8].

As to `Cc1ccc(NC(=O)C2(C(=O)Nc3ccc(F)cc3)CC2)cc1C#Cc1cnc2c(Nc3cnn(C(C)C)c3)cccn12` [Example 78], the remaining binding at 1 µM in assay [1] (ABL1 (F317I)-nonphosphorylated) turned out to be 36%; in assay [1] (ABL1 (F317I)-phosphorylated), 72%; in assay [2] it was 96%; in assay [3] it was 90%; in assay [4], 46%; in assay [5], 87%. Besides, the remaining binding at 1 µM worked out at 35% in assay [6], 100% in assay [7] and 99% in assay [8].
